Data from ChEMBL document CHEMBL4270624, “Synthesis and antibacterial evaluation of 13-substituted cycloberberine derivatives as a novel class of anti-MRSA agents” (Eur J Med Chem, 2018).

test system: Staphylococcus aureus; experiment: Antibacterial activity against methicillin-sensitive Staphylococcus aureus ATCC 29213 after 18 hrs by agar dilution method; assay type: functional; settings: ATCC 29213, 18 h

Compound | MIC
COC(=O)C(c1ccccc1)c1cc2c3ccc(OC)c(OC)c3c[n+]3c2c2c(cc4c(c12)OCO4)CC3.[Br-] (stereo not given) | > 64 µg/mL
COc1ccc2c(c[n+]3c4c2cc(Cc2ccc(OC(F)(F)F)cc2)c2c5c(cc(c24)CC3)OCO5)c1OC.[Br-] | 32 µg/mL
COc1ccc2c(Cc3ccccc3)c3[n+](cc2c1OC)CCc1cc2c(cc1-3)OCO2.[Br-] | 32 µg/mL
COC(=O)c1ccc(Cc2cc3c4ccc(OC)c(OC)c4c[n+]4c3c3c(cc5c(c23)OCO5)CC4)cc1.[Br-] | 32 µg/mL
COc1ccc2c(c[n+]3c4c2cc(Cc2ccc(C#N)cc2)c2c5c(cc(c24)CC3)OCO5)c1OC.[Br-] | > 64 µg/mL
COc1ccc2c(c[n+]3c4c2cc(Cc2ccc(C)cc2)c2c5c(cc(c24)CC3)OCO5)c1OC.[Br-] | 2 µg/mL
COc1ccc2c(c[n+]3c4c2cc(Cc2ccc(Br)cc2)c2c5c(cc(c24)CC3)OCO5)c1OC.[Br-] | 16 µg/mL

test system: Staphylococcus aureus; experiment: Antibacterial activity against methicillin-sensitive Staphylococcus aureus 16-1 clinical isolate after 18 hrs by agar dilution method; assay type: functional; settings: 16-1, 18 h

Compound | MIC
COC(=O)C(c1ccccc1)c1cc2c3ccc(OC)c(OC)c3c[n+]3c2c2c(cc4c(c12)OCO4)CC3.[Br-] (stereo not given) | > 64 µg/mL
COc1ccc2c(c[n+]3c4c2cc(Cc2ccc(OC(F)(F)F)cc2)c2c5c(cc(c24)CC3)OCO5)c1OC.[Br-] | 64 µg/mL
COc1ccc2c(Cc3ccccc3)c3[n+](cc2c1OC)CCc1cc2c(cc1-3)OCO2.[Br-] | 16 µg/mL
COC(=O)c1ccc(Cc2cc3c4ccc(OC)c(OC)c4c[n+]4c3c3c(cc5c(c23)OCO5)CC4)cc1.[Br-] | 64 µg/mL
COc1ccc2c(c[n+]3c4c2cc(Cc2ccc(C#N)cc2)c2c5c(cc(c24)CC3)OCO5)c1OC.[Br-] | > 64 µg/mL
COc1ccc2c(c[n+]3c4c2cc(Cc2ccc(C)cc2)c2c5c(cc(c24)CC3)OCO5)c1OC.[Br-] | 2 µg/mL
COc1ccc2c(c[n+]3c4c2cc(Cc2ccc(Br)cc2)c2c5c(cc(c24)CC3)OCO5)c1OC.[Br-] | 16 µg/mL

test system: Staphylococcus aureus; experiment: Antibacterial activity against methicillin-resistant Staphylococcus aureus ATCC 33591 after 18 hrs by agar dilution method; assay type: functional; settings: ATCC 33591, 18 h

Compound | MIC
COC(=O)C(c1ccccc1)c1cc2c3ccc(OC)c(OC)c3c[n+]3c2c2c(cc4c(c12)OCO4)CC3.[Br-] (stereo not given) | > 64 µg/mL
COc1ccc2c(c[n+]3c4c2cc(Cc2ccc(OC(F)(F)F)cc2)c2c5c(cc(c24)CC3)OCO5)c1OC.[Br-] | 32 µg/mL
COc1ccc2c(Cc3ccccc3)c3[n+](cc2c1OC)CCc1cc2c(cc1-3)OCO2.[Br-] | 64 µg/mL
COC(=O)c1ccc(Cc2cc3c4ccc(OC)c(OC)c4c[n+]4c3c3c(cc5c(c23)OCO5)CC4)cc1.[Br-] | 32 µg/mL
COc1ccc2c(c[n+]3c4c2cc(Cc2ccc(C#N)cc2)c2c5c(cc(c24)CC3)OCO5)c1OC.[Br-] | > 64 µg/mL
COc1ccc2c(c[n+]3c4c2cc(Cc2ccc(C)cc2)c2c5c(cc(c24)CC3)OCO5)c1OC.[Br-] | 2 µg/mL
COc1ccc2c(c[n+]3c4c2cc(Cc2ccc(Br)cc2)c2c5c(cc(c24)CC3)OCO5)c1OC.[Br-] | 16 µg/mL

test system: Staphylococcus aureus; experiment: Antibacterial activity against methicillin-resistant Staphylococcus aureus ATCC 43300 after 18 hrs by agar dilution method; assay type: functional; settings: ATCC 43300, 18 h

Compound | MIC
COC(=O)C(c1ccccc1)c1cc2c3ccc(OC)c(OC)c3c[n+]3c2c2c(cc4c(c12)OCO4)CC3.[Br-] (stereo not given) | > 64 µg/mL
COc1ccc2c(c[n+]3c4c2cc(Cc2ccc(OC(F)(F)F)cc2)c2c5c(cc(c24)CC3)OCO5)c1OC.[Br-] | 64 µg/mL
COc1ccc2c(Cc3ccccc3)c3[n+](cc2c1OC)CCc1cc2c(cc1-3)OCO2.[Br-] | 64 µg/mL
COC(=O)c1ccc(Cc2cc3c4ccc(OC)c(OC)c4c[n+]4c3c3c(cc5c(c23)OCO5)CC4)cc1.[Br-] | 64 µg/mL
COc1ccc2c(c[n+]3c4c2cc(Cc2ccc(C#N)cc2)c2c5c(cc(c24)CC3)OCO5)c1OC.[Br-] | > 64 µg/mL
COc1ccc2c(c[n+]3c4c2cc(Cc2ccc(C)cc2)c2c5c(cc(c24)CC3)OCO5)c1OC.[Br-] | 4 µg/mL
COc1ccc2c(c[n+]3c4c2cc(Cc2ccc(Br)cc2)c2c5c(cc(c24)CC3)OCO5)c1OC.[Br-] | 32 µg/mL

test system: Staphylococcus aureus; experiment: Antibacterial activity against methicillin-resistant Staphylococcus aureus ATCC BAA-976 after 18 hrs by agar dilution method; assay type: functional; settings: ATCC BAA-976, 18 h

Compound | MIC
COC(=O)C(c1ccccc1)c1cc2c3ccc(OC)c(OC)c3c[n+]3c2c2c(cc4c(c12)OCO4)CC3.[Br-] (stereo not given) | > 64 µg/mL
COc1ccc2c(c[n+]3c4c2cc(Cc2ccc(OC(F)(F)F)cc2)c2c5c(cc(c24)CC3)OCO5)c1OC.[Br-] | 64 µg/mL
COc1ccc2c(Cc3ccccc3)c3[n+](cc2c1OC)CCc1cc2c(cc1-3)OCO2.[Br-] | 32 µg/mL
COC(=O)c1ccc(Cc2cc3c4ccc(OC)c(OC)c4c[n+]4c3c3c(cc5c(c23)OCO5)CC4)cc1.[Br-] | 32 µg/mL
COc1ccc2c(c[n+]3c4c2cc(Cc2ccc(C#N)cc2)c2c5c(cc(c24)CC3)OCO5)c1OC.[Br-] | > 64 µg/mL
COc1ccc2c(c[n+]3c4c2cc(Cc2ccc(C)cc2)c2c5c(cc(c24)CC3)OCO5)c1OC.[Br-] | 2 µg/mL
COc1ccc2c(c[n+]3c4c2cc(Cc2ccc(Br)cc2)c2c5c(cc(c24)CC3)OCO5)c1OC.[Br-] | 16 µg/mL

test system: Staphylococcus aureus; experiment: Antibacterial activity against methicillin-resistant Staphylococcus aureus ATCC BAA-1708 after 18 hrs by agar dilution method; assay type: functional; settings: ATCC BAA-1708, 18 h

Compound | MIC
COC(=O)C(c1ccccc1)c1cc2c3ccc(OC)c(OC)c3c[n+]3c2c2c(cc4c(c12)OCO4)CC3.[Br-] (stereo not given) | > 64 µg/mL
COc1ccc2c(c[n+]3c4c2cc(Cc2ccc(OC(F)(F)F)cc2)c2c5c(cc(c24)CC3)OCO5)c1OC.[Br-] | 64 µg/mL
COc1ccc2c(Cc3ccccc3)c3[n+](cc2c1OC)CCc1cc2c(cc1-3)OCO2.[Br-] | 32 µg/mL
COC(=O)c1ccc(Cc2cc3c4ccc(OC)c(OC)c4c[n+]4c3c3c(cc5c(c23)OCO5)CC4)cc1.[Br-] | 64 µg/mL
COc1ccc2c(c[n+]3c4c2cc(Cc2ccc(C#N)cc2)c2c5c(cc(c24)CC3)OCO5)c1OC.[Br-] | > 64 µg/mL
COc1ccc2c(c[n+]3c4c2cc(Cc2ccc(C)cc2)c2c5c(cc(c24)CC3)OCO5)c1OC.[Br-] | 8 µg/mL
COc1ccc2c(c[n+]3c4c2cc(Cc2ccc(Br)cc2)c2c5c(cc(c24)CC3)OCO5)c1OC.[Br-] | 64 µg/mL

test system: Staphylococcus aureus; experiment: Antibacterial activity against methicillin-resistant Staphylococcus aureus 13-18 clinical isolate after 18 hrs by agar dilution method; assay type: functional; settings: 13-18, 18 h

Compound | MIC
COC(=O)C(c1ccccc1)c1cc2c3ccc(OC)c(OC)c3c[n+]3c2c2c(cc4c(c12)OCO4)CC3.[Br-] (stereo not given) | > 64 µg/mL
COc1ccc2c(c[n+]3c4c2cc(Cc2ccc(OC(F)(F)F)cc2)c2c5c(cc(c24)CC3)OCO5)c1OC.[Br-] | 32 µg/mL
COc1ccc2c(Cc3ccccc3)c3[n+](cc2c1OC)CCc1cc2c(cc1-3)OCO2.[Br-] | 32 µg/mL
COC(=O)c1ccc(Cc2cc3c4ccc(OC)c(OC)c4c[n+]4c3c3c(cc5c(c23)OCO5)CC4)cc1.[Br-] | 32 µg/mL
COc1ccc2c(c[n+]3c4c2cc(Cc2ccc(C#N)cc2)c2c5c(cc(c24)CC3)OCO5)c1OC.[Br-] | > 64 µg/mL
COc1ccc2c(c[n+]3c4c2cc(Cc2ccc(C)cc2)c2c5c(cc(c24)CC3)OCO5)c1OC.[Br-] | 4 µg/mL
COc1ccc2c(c[n+]3c4c2cc(Cc2ccc(Br)cc2)c2c5c(cc(c24)CC3)OCO5)c1OC.[Br-] | 16 µg/mL

test system: Staphylococcus aureus; experiment: Antibacterial activity against methicillin-resistant Staphylococcus aureus 13-23 clinical isolate after 18 hrs by agar dilution method; assay type: functional; settings: 13-23, 18 h

Compound | MIC
COC(=O)C(c1ccccc1)c1cc2c3ccc(OC)c(OC)c3c[n+]3c2c2c(cc4c(c12)OCO4)CC3.[Br-] (stereo not given) | > 64 µg/mL
COc1ccc2c(c[n+]3c4c2cc(Cc2ccc(OC(F)(F)F)cc2)c2c5c(cc(c24)CC3)OCO5)c1OC.[Br-] | 32 µg/mL
COc1ccc2c(Cc3ccccc3)c3[n+](cc2c1OC)CCc1cc2c(cc1-3)OCO2.[Br-] | 32 µg/mL
COC(=O)c1ccc(Cc2cc3c4ccc(OC)c(OC)c4c[n+]4c3c3c(cc5c(c23)OCO5)CC4)cc1.[Br-] | 64 µg/mL
COc1ccc2c(c[n+]3c4c2cc(Cc2ccc(C#N)cc2)c2c5c(cc(c24)CC3)OCO5)c1OC.[Br-] | > 64 µg/mL
COc1ccc2c(c[n+]3c4c2cc(Cc2ccc(C)cc2)c2c5c(cc(c24)CC3)OCO5)c1OC.[Br-] | 4 µg/mL
COc1ccc2c(c[n+]3c4c2cc(Cc2ccc(Br)cc2)c2c5c(cc(c24)CC3)OCO5)c1OC.[Br-] | 16 µg/mL

test system: Staphylococcus aureus; experiment: Antibacterial activity against methicillin-resistant Staphylococcus aureus 16-30 clinical isolate after 18 hrs by agar dilution method; assay type: functional; settings: 16-30, 18 h

Compound | MIC
COC(=O)C(c1ccccc1)c1cc2c3ccc(OC)c(OC)c3c[n+]3c2c2c(cc4c(c12)OCO4)CC3.[Br-] (stereo not given) | > 64 µg/mL
COc1ccc2c(c[n+]3c4c2cc(Cc2ccc(OC(F)(F)F)cc2)c2c5c(cc(c24)CC3)OCO5)c1OC.[Br-] | 64 µg/mL
COc1ccc2c(Cc3ccccc3)c3[n+](cc2c1OC)CCc1cc2c(cc1-3)OCO2.[Br-] | 64 µg/mL
COC(=O)c1ccc(Cc2cc3c4ccc(OC)c(OC)c4c[n+]4c3c3c(cc5c(c23)OCO5)CC4)cc1.[Br-] | 64 µg/mL
COc1ccc2c(c[n+]3c4c2cc(Cc2ccc(C#N)cc2)c2c5c(cc(c24)CC3)OCO5)c1OC.[Br-] | > 64 µg/mL
COc1ccc2c(c[n+]3c4c2cc(Cc2ccc(C)cc2)c2c5c(cc(c24)CC3)OCO5)c1OC.[Br-] | 2 µg/mL
COc1ccc2c(c[n+]3c4c2cc(Cc2ccc(Br)cc2)c2c5c(cc(c24)CC3)OCO5)c1OC.[Br-] | 16 µg/mL

test system: Staphylococcus aureus; experiment: Antibacterial activity against methicillin-resistant Staphylococcus aureus 16-34 clinical isolate after 18 hrs by agar dilution method; assay type: functional; settings: 16-34, 18 h

Compound | MIC
COC(=O)C(c1ccccc1)c1cc2c3ccc(OC)c(OC)c3c[n+]3c2c2c(cc4c(c12)OCO4)CC3.[Br-] (stereo not given) | > 64 µg/mL
COc1ccc2c(c[n+]3c4c2cc(Cc2ccc(OC(F)(F)F)cc2)c2c5c(cc(c24)CC3)OCO5)c1OC.[Br-] | 64 µg/mL
COc1ccc2c(Cc3ccccc3)c3[n+](cc2c1OC)CCc1cc2c(cc1-3)OCO2.[Br-] | 64 µg/mL
COC(=O)c1ccc(Cc2cc3c4ccc(OC)c(OC)c4c[n+]4c3c3c(cc5c(c23)OCO5)CC4)cc1.[Br-] | > 64 µg/mL
COc1ccc2c(c[n+]3c4c2cc(Cc2ccc(C#N)cc2)c2c5c(cc(c24)CC3)OCO5)c1OC.[Br-] | > 64 µg/mL
COc1ccc2c(c[n+]3c4c2cc(Cc2ccc(C)cc2)c2c5c(cc(c24)CC3)OCO5)c1OC.[Br-] | 2 µg/mL
COc1ccc2c(c[n+]3c4c2cc(Cc2ccc(Br)cc2)c2c5c(cc(c24)CC3)OCO5)c1OC.[Br-] | 16 µg/mL
